Holding throughout (test): relative viability (nuclei count vs DMSO), 5 days (fraction); higher = more cells survive
Compound in the assay “Lapatinib + Vorinostat”: CS(=O)(=O)CCNCc1ccc(-c2ccc3ncnc(Nc4ccc(OCc5cccc(F)c5)c(Cl)c4)c3c2)o1 [Lapatinib] + O=C(CCCCCCC(=O)Nc1ccccc1)NO [Vorinostat] (partner 1 µM)
The method, boiled down:
(§1)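 Relative viability equals treated-well nuclei counts divided by vehicle-well nuclei counts. Counts came from 4× images of lung cancer cell lines grown in 1536-well plates for 5 days after pin-tool dosing on the day after seeding. Dosing used one drug alone or a fixed anchor-drug dose plus five library-drug doses (not always all listed) in √10 steps, and values are medians of duplicate plates.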

Compound in the assay “Wnt-C59 + Tozasertib”: CC1=NC=CC(=C1)C2=CC=C(C=C2)CC(=O)NC3=CC=C(C=C3)C4=CN=CC=C4 [Wnt-C59] + Cc1cc(Nc2cc(N3CCN(C)CC3)nc(Sc3ccc(NC(=O)C4CC4)cc3)n2)n[nH]1 [Tozasertib] (partner 0.1 µM)
The method, boiled down: as §1

Compound in the assay “Wnt-C59 + Navitoclax”: CC1=NC=CC(=C1)C2=CC=C(C=C2)CC(=O)NC3=CC=C(C=C3)C4=CN=CC=C4 [Wnt-C59] + CC1(C)CCC(c2ccc(Cl)cc2)=C(CN2CCN(c3ccc(C(=O)NS(=O)(=O)c4ccc(N[C@H](CCN5CCOCC5)CSc5ccccc5)c(S(=O)(=O)C(F)(F)F)c4)cc3)CC2)C1 [Navitoclax] (partner 0.5 µM)
The method, boiled down:
as §1

Compound in the assay “Wnt-C59 + Palbociclib”: CC1=NC=CC(=C1)C2=CC=C(C=C2)CC(=O)NC3=CC=C(C=C3)C4=CN=CC=C4 [Wnt-C59] + CC(=O)c1c(C)c2cnc(Nc3ccc(N4CCNCC4)cn3)nc2n(C2CCCC2)c1=O [Palbociclib] (partner 0.5 µM)
The method, boiled down: as §1

Consider UMC-11, for which the relative viability came out at 0.42 in the assay with Lapatinib + Vorinostat (first compound 0.02 µM); 0.384 with Lapatinib + Vorinostat (first compound 0.06325 µM); 0.39 in the assay with Lapatinib + Vorinostat (first compound 0.2 µM); 0.367 with Lapatinib + Vorinostat (first compound 0.6325 µM); 0.321 with Lapatinib + Vorinostat (first compound 2 µM); 0.214 in the assay with Wnt-C59 + Tozasertib (first compound 0.001 µM). The relative viability turned out to be 0.197 with Wnt-C59 + Tozasertib (first compound 0.01 µM); 0.203 in the assay with Wnt-C59 + Tozasertib (first compound 0.03162 µM); 0.226 in the assay with Wnt-C59 + Tozasertib (first compound 0.1 µM); 0.312 in the assay with Wnt-C59 + Navitoclax (first compound 0.001 µM); 0.315 with Wnt-C59 + Navitoclax (first compound 0.01 µM); 0.265 in the assay with Wnt-C59 + Navitoclax (first compound 0.03162 µM). The relative viability came to 0.339 with Wnt-C59 + Navitoclax (first compound 0.1 µM); 0.337 in the assay with Wnt-C59 + Palbociclib (first compound 0.001 µM); 0.319 with Wnt-C59 + Palbociclib (first compound 0.01 µM); 0.361 with Wnt-C59 + Palbociclib (first compound 0.03162 µM); 0.305 in the assay with Wnt-C59 + Palbociclib (first compound 0.1 µM).
